Test results from patent US8530179B2, “Electrochemical methods of detecting cancer with 4-aminophenyl phosphate” (Ramot at Tel-Aviv University Ltd, priority 2007, dated 2013).

Test system: HT-29 colon cancer cells
Test: Amperometric measurement of induced alkaline phosphatase activity in HT-29 cells on the electrochemical array chip (substrate p-APP, 220 mV)
Format: cell-based, human
Details: for induced alkaline phosphatase enzymatic activity (amperometric current): exposed for 96 hours, substrate PAPP, 220 mV
Method: HT-29 human colon cancer cells were grown in DMEM medium in the presence of fetal bovine serum at 37° C. in 95% air, 5% CO2 for 3 days prior to butyrate treatment. Butyrate at different concentrations was added to the HT-29 cell cultures. Concentrations applied were: 0, 0.078, 0.156, 0.3125, 0.625, 1.25, 2.5, 5 and 10 mM. Optimal butyrate concentration, LC50 and viability were calculated accordingly. The measurements were performed in PBS with the intact cells and without additional treatment of the cancer cells such as lysis.
BA (Sigma, Israel) ranging between 0.08-10 mM were introduced to HT-29 colon cancer cells and incubated for 72 h for optimization. BA at a constant concentration of 2.5 mM was applied in all electrochemical experiments. BA derivatives, butyroylmethyl-diethyl phosphate, and pivaloyloxymethyl butyrate, were synthesized as described [Rephaeli A, Zhuk R, Nudelman A, 2000, Drug Develop. Res. Vol 50:379-391]. Butyroylmethyl-diethyl phosphate was solubilized in PBS and pivaloyloxymethyl butyrate in DMSO followed by dilution with medium to a final DMSO concentration of ≦0.1%. The prodrugs were then introduced to the cells at a constant concentration of 50 μM and incubated for 96 h at 37° C. in 95% air, 5% CO2 conditions. Following incubation with the differentiation agents, viable cells were counted by tripa blue exclusion and tested for viability and LC50 calculations. Prior to all electrochemical measurement, cells were centrifuged and diluted in PBS. All measurements were performed in PBS. The influence of BA, pivaloyloxymethyl butyrate and butyroylmethyl-diethyl phosphate were examined by measuring the enzymatic activity of alkaline phosphatase.
Amperometric enzyme measurements were performed with the electrochemical substrate, p-APP. The enzymatic reaction product, aminophenol (p-AP), is oxidized at the gold working electrode at 220 mV and the generated current was measured. Eight-channeled 100 nL volume electrochemical chambers were loaded with HT-29 cancer cells, that were treated with BA or its derivatives. Cells were placed into the electrochemical chambers and the substrate was added to 1 mg/ml final concentration at a total volume of 100 nL. The generated current was measured and the number of cells was counted under the microscope. The correlation between cell number and current density was analyzed.
HT-29 colon cancer cells were exposed for 96 hours to various differentiation therapy agents and the induced alkaline phosphatase activity was measured. […]
In order to further examine the sensitivity of the biochip, increasing numbers of HT-29 colon cancer cells were incubated with butyroylmethyl-diethyl phosphate for different lengths of time. The amount of endogenous alkaline phosphatase was measured using the biochip of the present invention.

Row | SMILES | induced alkaline phosphatase enzymatic activity (amperometric current) (2.5 mM) | induced alkaline phosphatase enzymatic activity (amperometric current) (50 μM) | effect on cancer cells (alkaline phosphatase current signal) versus incubation time (eight, seventy eight and ninety six hour treatment, increasing cell numbers)
1 | CCCC(=O)O [BA, Butyric acid] | induced enzymatic activity of alkaline phosphatase |  | 
2 | CCCC(=O)OCOP(=O)(OCC)OCC [butyroylmethyl-diethyl phosphate] |  | induced enzymatic activity of alkaline phosphatase | increased as incubation time increased
3 | CCCC(=O)OCOC(=O)C(C)(C)C [pivaloyloxymethyl butyrate] |  | did not induce any enzyme activity | 
